Measurements from patent publication US20240415918A1, “Polypeptide and its use as a CCK receptor agonist/antagonist” (Centre for Regenerative Medicine & Health, Hong Kong …, priority 2021, published 2024).

Target: T1, CCK-B receptors (CHO-CCK) (Homo sapiens, UniProt P32239)
T1 construct: expressed in transfected cells; host or cells: CHO (CHO-CCK model cells)
T1 sequence (P32239 1-447): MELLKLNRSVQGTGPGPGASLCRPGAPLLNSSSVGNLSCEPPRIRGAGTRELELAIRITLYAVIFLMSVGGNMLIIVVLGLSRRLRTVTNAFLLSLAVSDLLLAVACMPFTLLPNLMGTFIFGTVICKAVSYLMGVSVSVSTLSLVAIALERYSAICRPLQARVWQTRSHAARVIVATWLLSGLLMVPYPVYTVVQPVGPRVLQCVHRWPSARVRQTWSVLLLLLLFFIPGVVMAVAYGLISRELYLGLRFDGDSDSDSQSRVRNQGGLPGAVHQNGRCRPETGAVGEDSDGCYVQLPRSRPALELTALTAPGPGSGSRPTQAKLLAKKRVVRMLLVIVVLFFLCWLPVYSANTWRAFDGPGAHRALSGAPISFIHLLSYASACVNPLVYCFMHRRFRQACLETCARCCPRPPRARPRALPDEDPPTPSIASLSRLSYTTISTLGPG
Experiment: Calcium flux (Fluo-8) agonist test on CHO-CCK model cells
Assay type: cell-based
Settings: compound at 10 μM; percentage of signal of 20 nM CCK8 alone
Experimental: • To detect changes in intracellular calcium ion concentration after the compound acts on model cells containing CCK-B receptors (CHO-CCK).
• 1. The compound was formulated to a 10 mM mother liquor with DMSO, and then diluted into a series of 9 concentrations with a 3-fold gradient to form a 1000× stock solution.
2.1 Agonist • The compound stock solution was subjected to 200-fold dilution with HHBS buffer to form a 5× working solution.
• 1. Plate CHO-CCK cells in a 96-well plate with media containing 1% FBS, 30,000 cells/well/100 μL, and incubate overnight at 37° C. • 2. Prepare 1×Fluo-8 analysis buffer: mix 9 mL of HHBS, 1 mL of 10× Pluronic F127 Plus and 20 μL of Fluo-8 thoroughly for later use. • 3. Add Fluo-8 dye working solution to the cell plate, 100 μL/well. First incubate in a 37° C. incubator for 30 min, and then take it out and incubate at room temperature in the dark for 30 min. • 4. In the process of incubating cells, the compounds to be detected were prepared with HHBS. • 5.
The agonism/antagonism EC50 of the compound can be obtained by plotting the fitting curve with the agonism/antagonism percentage as Y-axis and the concentration of the compound as X-axis.

| Agonistic Activity (%) at 10 μM [%] | Structure (SMILES) |
| --- | --- |
| −0.20 | COC(=O)C[C@H](NC(=O)[C@H](CCSC)NC(=O)[C@H](N)Cc1c[nH]c2ccccc12)C(=O)N[C@@H](Cc1ccccc1[N+](=O)[O-])C(N)=O [HT-75, D-Trp-Met-Asp(Ome)-Phe(2-NO2)-NH2] |
| 23.09 | COC(=O)C[C@H](NC(=O)[C@H](CCSC)NC(=O)[C@H](N)Cc1c[nH]c2ccccc12)C(=O)N[C@@H](Cc1ccccc1F)C(N)=O [HT-76, D-Trp-Met-Asp(Ome)-Phe(2-F)-NH2] |
| 1.83 | COC(=O)C[C@H](NC(=O)[C@H](CCSC)NC(=O)[C@H](N)Cc1c[nH]c2ccccc12)C(=O)N[C@@H](Cc1cccc(Cl)c1)C(N)=O [HT-77, D-Trp-Met-Asp(Ome)-Phe(3-Cl)-NH2] |
| 12.27 | COC(=O)C[C@H](NC(=O)[C@H](CCSC)NC(=O)[C@H](N)Cc1c[nH]c2ccccc12)C(=O)N[C@@H](Cc1ccc(C)cc1)C(N)=O [HT-81, D-Trp-Met-Asp(Ome)-Phe(4-Me)-NH2] |
| 12.78 | COC(=O)C[C@H](NC(=O)[C@H](CCSC)NC(=O)[C@H](N)Cc1c[nH]c2ccccc12)C(=O)N[C@@H](Cc1ccc(N=[N+]=[N-])cc1)C(N)=O [HT-82, D-Trp-Met-Asp(Ome)-Phe(4-N3)-NH2] |
| 1.91 | COC(=O)C[C@H](NC(=O)[C@H](CCSC)NC(=O)[C@H](N)Cc1c[nH]c2ccccc12)C(=O)N[C@@H](Cc1ccc(C#N)cc1)C(N)=O [HT-83, D-Trp-Met-Asp(Ome)-Phe(4-CN)-NH2] |
| 3.24 | COC(=O)C[C@H](NC(=O)[C@H](CCSC)NC(=O)[C@H](N)Cc1c[nH]c2ccccc12)C(=O)N[C@@H](Cc1ccc([N+](=O)[O-])cc1)C(N)=O [HT-84, D-Trp-Met-Asp(Ome)-Phe(4-NO2)-NH2] |
| 7.32 | COC(=O)C[C@H](NC(=O)[C@H](CCSC)NC(=O)[C@H](N)Cc1c[nH]c2ccccc12)C(=O)N[C@@H](Cc1ccc(Br)cc1)C(N)=O [HT-85, D-Trp-Met-Asp(Ome)-Phe(4-Br)-NH2] |
| −0.94 | COC(=O)C[C@H](NC(=O)[C@H](CCSC)NC(=O)[C@H](N)Cc1c[nH]c2ccccc12)C(=O)N[C@@H](Cc1ccc(Cl)cc1)C(N)=O [HT-86, D-Trp-Met-Asp(Ome)-Phe(4-Cl)-NH2] |
| −4.64 | COC(=O)C[C@H](NC(=O)[C@H](CCSC)NC(=O)[C@H](N)Cc1c[nH]c2ccccc12)C(=O)N[C@@H](Cc1ccc(I)cc1)C(N)=O [HT-88, D-Trp-Met-Asp(Ome)-Phe(4-I)-NH2] |
| 3.12 | COC(=O)C[C@H](NC(=O)[C@H](CCSC)NC(=O)[C@H](N)Cc1c[nH]c2ccccc12)C(=O)N[C@@H](Cc1cc(F)c(F)c(F)c1)C(N)=O [HT-91, D-Trp-Met-Asp(Ome)-Phe(3,4,5-TriF)-NH2] |
| 3.33 | COC(=O)C[C@H](NC(=O)[C@H](CC[S+](C)[O-])NC(=O)[C@H](N)Cc1c[nH]c2ccccc12)C(=O)N[C@@H](Cc1ccccc1[N+](=O)[O-])C(N)=O (stereo partly drawn) [HT-109, D-Trp-Met(O)-Asp(Ome)-Phe(2-NO2)-NH2] |
| 1.36 | COC(=O)C[C@H](NC(=O)[C@H](CC[S+](C)[O-])NC(=O)[C@H](N)Cc1c[nH]c2ccccc12)C(=O)N[C@@H](Cc1ccccc1F)C(N)=O (stereo partly drawn) [HT-110, D-Trp-Met(O)-Asp(Ome)-Phe(2-F)-NH2] |
| −7.28 | COC(=O)C[C@H](NC(=O)[C@H](CC[S+](C)[O-])NC(=O)[C@H](N)Cc1c[nH]c2ccccc12)C(=O)N[C@@H](Cc1cccc(Cl)c1)C(N)=O (stereo partly drawn) [HT-111, D-Trp-Met(O)-Asp(Ome)-Phe(3-Cl)-NH2] |
| 2.89 | COC(=O)C[C@H](NC(=O)[C@H](CC[S+](C)[O-])NC(=O)[C@H](N)Cc1c[nH]c2ccccc12)C(=O)N[C@@H](Cc1cccc(F)c1)C(N)=O (stereo partly drawn) [HT-112, D-Trp-Met(O)-Asp(Ome)-Phe(3-F)-NH2] |
| 6.21 | COC(=O)C[C@H](NC(=O)[C@H](CC[S+](C)[O-])NC(=O)[C@H](N)Cc1c[nH]c2ccccc12)C(=O)N[C@@H](Cc1cccc(I)c1)C(N)=O (stereo partly drawn) [HT-113, D-Trp-Met(O)-Asp(Ome)-Phe(3-I)-NH2] |

| Agonistic Activity (%) at 10 μM [%] | Structure (SMILES) |
| --- | --- |
| −8.48 | COC(=O)C[C@H](NC(=O)[C@H](CC[S+](C)[O-])NC(=O)[C@H](N)Cc1c[nH]c2ccccc12)C(=O)N[C@@H](Cc1cccc(Br)c1)C(N)=O (stereo partly drawn) [HT-114, D-Trp-Met(O)-Asp(Ome)-Phe(3-Br)-NH2] |
| 9.82 | COC(=O)C[C@H](NC(=O)[C@H](CC[S+](C)[O-])NC(=O)[C@H](N)Cc1c[nH]c2ccccc12)C(=O)N[C@@H](Cc1ccc(C)cc1)C(N)=O (stereo partly drawn) [HT-115, D-Trp-Met(O)-Asp(Ome)-Phe(4-Me)-NH2] |
| 10.90 | COC(=O)C[C@H](NC(=O)[C@H](CC[S+](C)[O-])NC(=O)[C@H](N)Cc1c[nH]c2ccccc12)C(=O)N[C@@H](Cc1ccc(N=[N+]=[N-])cc1)C(N)=O (stereo partly drawn) [HT-116, D-Trp-Met(O)-Asp(Ome)-Phe(4-N3)-NH2] |
| 9.81 | COC(=O)C[C@H](NC(=O)[C@H](CC[S+](C)[O-])NC(=O)[C@H](N)Cc1c[nH]c2ccccc12)C(=O)N[C@@H](Cc1ccc(C#N)cc1)C(N)=O (stereo partly drawn) [HT-117, D-Trp-Met(O)-Asp(Ome)-Phe(4-CN)-NH2] |
| 0.13 | COC(=O)C[C@H](NC(=O)[C@H](CC[S+](C)[O-])NC(=O)[C@H](N)Cc1c[nH]c2ccccc12)C(=O)N[C@@H](Cc1ccc([N+](=O)[O-])cc1)C(N)=O (stereo partly drawn) [HT-118, D-Trp-Met(O)-Asp(Ome)-Phe(4-NO2)-NH2] |
| 6.93 | COC(=O)C[C@H](NC(=O)[C@H](CC[S+](C)[O-])NC(=O)[C@H](N)Cc1c[nH]c2ccccc12)C(=O)N[C@@H](Cc1ccc(Br)cc1)C(N)=O (stereo partly drawn) [HT-119, D-Trp-Met(O)-Asp(Ome)-Phe(4-Br)-NH2] |
| −1.00 | COC(=O)C[C@H](NC(=O)[C@H](CC[S+](C)[O-])NC(=O)[C@H](N)Cc1c[nH]c2ccccc12)C(=O)N[C@@H](Cc1ccc(Cl)cc1)C(N)=O (stereo partly drawn) [HT-120, D-Trp-Met(O)-Asp(Ome)-Phe(4-Cl)-NH2] |
| 10.99 | COC(=O)C[C@H](NC(=O)[C@H](CC[S+](C)[O-])NC(=O)[C@H](N)Cc1c[nH]c2ccccc12)C(=O)N[C@@H](Cc1ccc(F)cc1)C(N)=O (stereo partly drawn) [HT-121, D-Trp-Met(O)-Asp(Ome)-Phe(4-F)-NH2] |
| 5.16 | COC(=O)C[C@H](NC(=O)[C@H](CC[S+](C)[O-])NC(=O)[C@H](N)Cc1c[nH]c2ccccc12)C(=O)N[C@@H](Cc1ccc(I)cc1)C(N)=O (stereo partly drawn) [HT-122, D-Trp-Met(O)-Asp(Ome)-Phe(4-I)-NH2] |
| 0.84 | COC(=O)C[C@H](NC(=O)[C@H](CC[S+](C)[O-])NC(=O)[C@H](N)Cc1c[nH]c2ccccc12)C(=O)N[C@@H](Cc1cc(Cl)cc(Cl)c1)C(N)=O (stereo partly drawn) [HT-123, D-Trp-Met(O)-Asp(Ome)-Phe(3,5-DiCl)-NH2] |
| 0.71 | COC(=O)C[C@H](NC(=O)[C@H](CC[S+](C)[O-])NC(=O)[C@H](N)Cc1c[nH]c2ccccc12)C(=O)N[C@@H](Cc1cc(F)cc(F)c1)C(N)=O (stereo partly drawn) [HT-124, D-Trp-Met(O)t-Asp(Ome)-Phe(3,5-DiF)-NH2] |
| −4.16 | COC(=O)C[C@H](NC(=O)[C@H](CC[S+](C)[O-])NC(=O)[C@H](N)Cc1c[nH]c2ccccc12)C(=O)N[C@@H](Cc1cc(F)c(F)c(F)c1)C(N)=O (stereo partly drawn) [HT-125, D-Trp-Met(O)-Asp(Ome)-Phe(3,4,5-TriF)-NH2] |
| 9.50 | COC(=O)C[C@H](NC(=O)[C@H](CCS(C)(=O)=O)NC(=O)[C@H](N)Cc1c[nH]c2ccccc12)C(=O)N[C@@H](Cc1ccccc1[N+](=O)[O-])C(N)=O [HT-126, D-Trp-Met(O)-Asp(Ome)-Phe(2-NO2)-NH2] |
| 1.79 | COC(=O)C[C@H](NC(=O)[C@H](CCS(C)(=O)=O)NC(=O)[C@H](N)Cc1c[nH]c2ccccc12)C(=O)N[C@@H](Cc1ccccc1F)C(N)=O [HT-127, D-Trp-Met(O2)-Asp(Ome)-Phe(2-F)-NH2] |
| 0.73 | COC(=O)C[C@H](NC(=O)[C@H](CCS(C)(=O)=O)NC(=O)[C@H](N)Cc1c[nH]c2ccccc12)C(=O)N[C@@H](Cc1cccc(Cl)c1)C(N)=O [HT-128, D-Trp-Met(O2)-Asp(Ome)-Phe(3-Cl)-NH2] |

| Structure (SMILES) | Agonistic Activity (%) at 10 μM [%] |
| --- | --- |
| CSCC[C@H](NC(=O)[C@H](N)Cc1c[nH]c2ccccc12)C(=O)N[C@@H](CC(=O)OCCNc1cccc2c(O)cccc12)C(=O)N[C@@H](Cc1ccc(Cl)cc1)C(N)=O [HT-103, D-Trp-Met-Asp(EDANS)-Phe(4-Cl)-NH2] | 1.03 |
